The values below come from patent publication EP4772507A1, “AZAINDOLE COMPOUND AND MEDICAL DRUG” (Nippon Shinyaku Co., Ltd., priority 2023, dated 2025).

Series [1] deals with T1, C-terminal catalytic domain of MALT1 (amino acid residues 329-824) (Homo sapiens, UniProt Q9UDY8).
T1 construct: C-terminal catalytic domain of MALT1 (amino acid residues 329-824)
T1 sequence (Q9UDY8 329-824): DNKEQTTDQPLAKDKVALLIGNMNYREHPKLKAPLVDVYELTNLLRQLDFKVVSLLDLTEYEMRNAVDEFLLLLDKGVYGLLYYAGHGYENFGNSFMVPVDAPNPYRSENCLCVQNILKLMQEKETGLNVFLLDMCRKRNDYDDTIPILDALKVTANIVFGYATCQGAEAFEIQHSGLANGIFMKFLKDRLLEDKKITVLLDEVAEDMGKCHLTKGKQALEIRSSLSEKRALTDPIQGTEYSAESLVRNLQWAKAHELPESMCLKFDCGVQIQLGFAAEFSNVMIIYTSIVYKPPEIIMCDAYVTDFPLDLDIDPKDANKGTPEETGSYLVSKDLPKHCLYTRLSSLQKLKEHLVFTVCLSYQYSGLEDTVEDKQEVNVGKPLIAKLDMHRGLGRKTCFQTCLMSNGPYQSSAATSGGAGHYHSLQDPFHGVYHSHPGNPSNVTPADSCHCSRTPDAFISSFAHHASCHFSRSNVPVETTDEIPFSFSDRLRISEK
The series can be described thus: MALT1 protease inhibitory activity (enzyme activity inhibition assay, fluorogenic substrate). The format is biochemical. The note with it: substrate Ac-Leu-Arg-Ser-Arg-AMC 50 µM; 30°C for 2 hours; fluorescence. In outline:
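Human MALT1 catalytic domain (residues 329-824) with Ac-Leu-Arg-Ser-Arg-AMC at 50 µM final, pH 7.5 Tris/HEPES buffer with 0.8 M Na citrate, DTT and CHAPS. Compounds at 0.1 to 10000 nM final, n = 2; reaction 2 h at 30°C. Fluorescence (ex 380/em 460 nm) fitted to a 2-parameter logistic model for IC50.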

Series [2] deals with HEK293/API2-MALT1/NF-κB reporter cells. Briefly: Inhibition of reporter activity in HEK293/API2-MALT1/NF-κB reporter cells. The format is cell-based. The note with it: Homo sapiens, 24 hours with test substance, One-glo luminescence. In outline:
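HEK293 cells with constitutive NF-κB activation by API2-MALT1 fusion, carrying an NF-κB reporter; 293T/CMV reporter cells served as negative control. Cells seeded 24 h, then exposed to compound at final 10,000, 1,000, 100 and 10 nM for 24 h at 37 °C; luminescence read with One-glo, IC50 by non-linear regression.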

The subject of the next series is OCI-Ly3 cell lines. The series can be described thus: Proliferation inhibition test, ABC-DLBCL cell line OCI-Ly3. Type of series: cell-based. The note with it: Homo sapiens; OCI-Ly3 (ABC-DLBCL, NF-κB pathway-dependent); 96 hours; Cell Counting Kit-8; read-out: Proliferation inhibitory activity against OCI-Ly3 IC50. In outline:
(§1)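 Cells exposed 96 h at 37 °C to compound at final 10–10,000 nM: OCI-Ly3 (ABC-DLBCL, NF-κB-dependent, IMDM/10% FBS) and SU-DHL-4 (GCB-DLBCL, NF-κB-independent negative control, RPMI-1640/10% FBS). Viability by CCK-8 absorbance at 450 nm after 4 h; IC50 from 2-parameter logistic regression.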

The next series concerns SU-DHL-4 cell lines. The series can be described thus: Proliferation inhibition test, GCB-DLBCL cell line SU-DHL-4 (negative control line). The note with it: Homo sapiens; SU-DHL-4 (GCB-DLBCL, NF-κB pathway-independent, negative control); 96 hours; Cell Counting Kit-8; read-out: Proliferation inhibitory activity against SU-DHL-4 IC50. Type of series: cell-based. The essentials: as §1
(Formazan colour is commonly taken as a measure of viable cells.)

Series [3] is described as follows: Central nervous system (CNS) penetration study in mice. Type of series: in vivo. The note with it: female, BALB/cCrSlc, mouse, ip, 30 mg/kg intraperitoneally, three hours later, cerebrum and plasma by LC-MS/MS, read-out: Brain-to-plasma concentration ratio (Kp value). The procedure:
To evaluate the central nervous system (CNS) penetration of a test substance, a central nervous system penetration study was conducted using mice.
Six-week-old female BALB/cCrSlc mice (Japan SLC) were used. The test substance suspended in 0.5% methylcellulose was intraperitoneally administered to mice at a dose of 30 mg/kg. Three hours later, blood was collected from the abdominal vena cava under isoflurane anesthesia, and plasma was obtained by centrifugation. After exsanguination from the abdominal vena cava, the cerebrum was collected.
The drug concentrations of the collected plasma and cerebrum were measured by LC-MS/MS. To determine the brain penetration of the drug, the brain-to-plasma concentration ratio (Kp value) was calculated.

Consider `C[C@@H]1CC(C(=O)c2cn(C3COC3)c3nc(-c4ncccn4)c(Cl)cc23)C[C@@H](C)N1c1ncc(F)cc1I` (stereo partly drawn) [Example 10, [5-chloro-1-(oxetan-3-yl)-6-(pyrimidin-2-yl)-1H-pyrrolo[2,3-b]pyridin-3-yl][(2R,6R)-1-(5-fluoro-3-iodopyridin-2-yl)-2,6-dimethylpiperidin-4-yl]methanone], for which the IC50 amounted to 67 nM in series [1], 140 nM in series [2], 440 nM with OCI-Ly3 cell lines and 6000 nM in the series on SU-DHL-4 cell lines. Besides, the Kp at 3 h in series [3] is 1.7.

On to `C[C@@H]1CC(C(=O)c2cn(C)c3nc(-c4ncccn4)c(Cl)cc23)C[C@@H](C)N1c1ncc(F)cc1I` (stereo partly drawn) [Example 11, [5-chloro-1-methyl-6-(pyrimidin-2-yl)-1H-pyrrolo[2,3-b]pyridin-3-yl][(2R,6R)-1-(5-fluoro-3-iodopyridin-2-yl)-2,6-dimethylpiperidin-4-yl]methanone], for which the IC50 amounted to 54 nM in series [1], 230 nM in series [2], 290 nM in the series on OCI-Ly3 cell lines and 8900 nM in the series with SU-DHL-4 cell lines. Also, in series [3], the Kp at 3 h worked out at 3.

Take `Cn1cc(C(=O)c2cnn(-c3cncc4c(F)cccc34)c2C(F)(F)F)c2cc(Cl)c(-c3ncccn3)nc21` [Example 12, [5-chloro-1-methyl-6-(pyrimidin-2-yl)-1H-pyrrolo[2,3-b]pyridin-3-yl][1-(8-fluoroisoquinolin-4-yl)-5-(trifluoromethyl)-1H-pyrazol-4-yl]methanone]: the IC50 in series [1] is 11 nM; in series [2] it was 85 nM; in the series with OCI-Ly3 cell lines it was 210 nM; in the series with SU-DHL-4 cell lines, 1900 nM. The Kp at 3 h in series [3] is 0.66.

Turning to `CCn1cc(C(=O)C2C[C@@H](C)N(c3ncc(F)cc3I)[C@H](C)C2)c2cc(Cl)c(-n3nccn3)nc21` (stereo partly drawn) [Example 14, [5-chloro-1-ethyl-6-(2H-1,2,3-triazol-2-yl)-1H-pyrrolo[2,3-b]pyridin-3-yl][(2R,6R)-1-(5-fluoro-3-iodopyridin-2-yl)-2,6-dimethylpiperidin-4-yl]methanone], the IC50 in series [1] was 58 nM; in series [2] it was 70 nM; in the series with OCI-Ly3 cell lines, 470 nM; in the series on SU-DHL-4 cell lines it was 8500 nM. Further, the Kp at 3 h in series [3] was 0.74.

For the compound `CC(C)n1cc(C(=O)C2C[C@@H](C)N(c3ncc(F)cc3I)[C@H](C)C2)c2cc(Cl)c(-n3nccn3)nc21` (stereo partly drawn) [Example 17, [5-chloro-1-isopropyl-6-(2H-1,2,3-triazol-2-yl)-1H-pyrrolo[2,3-b]pyridin-3-yl][(2R,6R)-1-(5-fluoro-3-iodopyridin-2-yl)-2,6-dimethylpiperidin-4-yl]methanone], the IC50 in series [1] is 160 nM; in series [2] it was 300 nM; in the series with OCI-Ly3 cell lines it was 690 nM; with SU-DHL-4 cell lines, 6700 nM. Moreover, in series [3], the Kp at 3 h came to 0.26.

As for `CCn1cc(C(=O)C2C[C@@H](C)N(c3ncc(F)cc3I)[C@H](C)C2)c2cc(Cl)c(-c3ncccn3)nc21` (stereo partly drawn) [Example 18, [5-chloro-1-ethyl-6-(pyrimidin-2-yl)-1H-pyrrolo[2,3-b]pyridin-3-yl][(2R,6R)-1-(5-fluoro-3-iodopyridin-2-yl)-2,6-dimethylpiperidin-4-yl]methanone], the IC50 in series [1] turned out to be 65 nM; in series [2], 100 nM; in the series on OCI-Ly3 cell lines, 480 nM; in the series with SU-DHL-4 cell lines, 6700 nM. Besides, the Kp at 3 h in series [3] is 0.63.

In the case of `CCCn1cc(C(=O)c2cnn(-c3cncc4c(F)cccc34)c2C(F)(F)F)c2cc(Cl)c(-c3ncccn3)nc21` [Example 26, [5-chloro-1-propyl-6-(pyrimidin-2-yl)-1H-pyrrolo[2,3-b]pyridin-3-yl][1-(8-fluoroisoquinolin-4-yl)-5-(trifluoromethyl)-1H-pyrazol-4-yl]methanone], the IC50 in series [1] is 51 nM; in series [2], 110 nM; with OCI-Ly3 cell lines, 140 nM; with SU-DHL-4 cell lines it was 1400 nM. Also, the Kp at 3 h in series [3] was 0.27.

Regarding `Cn1cc(C(=O)c2cnn(-c3cccc4nnsc34)c2C(F)(F)F)c2cc(Cl)c(-n3nccn3)nc21` [Example 28, [1-(1,2,3-benzothiadiazol-7-yl)-5-(trifluoromethyl)-1H-pyrazol-4-yl][5-chloro-1-methyl-6-(2H-1,2,3-triazol-2-yl)-1H-pyrrolo[2,3-b]pyridin-3-yl]methanone], the IC50 in series [1] was 24 nM; in series [2], 440 nM; in the series with OCI-Ly3 cell lines, 610 nM; in the series with SU-DHL-4 cell lines, above 10000 nM. Further, the Kp at 3 h in series [3] is 1.75.

Turning to `Cn1cc(C(=O)c2cnn(-c3cccc4nnsc34)c2C(F)(F)F)c2cc(Cl)c(-c3ncccn3)nc21` [Example 29, [1-(1,2,3-benzothiadiazol-7-yl)-5-(trifluoromethyl)-1H-pyrazol-4-yl][5-chloro-1-methyl-6-(pyrimidin-2-yl)-1H-pyrrolo[2,3-b]pyridin-3-yl]methanone], the IC50 in series [1] is 17 nM; in series [2], 220 nM; in the series on OCI-Ly3 cell lines, 1000 nM; in the series on SU-DHL-4 cell lines it was above 10000 nM. Also, the Kp at 3 h in series [3] is 0.98.
